Values of other authors in patent US20050142185A1, “Softgel formulations of bisphosphonates bone resorption inhibitors” (priority 2003, published 2005).

Tests used:
[1] = taken either concurrently with or 2 hours after breakfast
[2] = marketed tablet not taken with enough water, or patient not upright for about one-half hour after taking

impairment of availability [1]: > 85%
SMILES: NCCCC(O)(P(=O)(O)O)P(=O)(O)O [alendronate, 4-amino-1-hydroxybutylidene-1,1-biphosphonic acid]
side effects reported [2]: esophageal irritation and erosion
